In PubChem BioAssay (NCI) one finds TGI and GI50 data, which are given here for ten compounds.

Some test systems named below: UO-31 renal; OVCAR-4 ovarian; SK-OV-3 ovarian; IGROV1 ovarian; T-47D breast; PC-3 prostate; OVCAR-5 ovarian; SW-620 colon.
Common to all, as to test: growth of human tumour cells (NCI), 48 h

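A five-concentration, 48-hour dose response in 96-well plates underlies each endpoint, interpolated linearly between surrounding concentrations. GI50 marks 50% less growth. TGI: concentration producing complete growth inhibition.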 Bounds are passed on as bounds.

With `COc1cc([N+](=O)[O-])c(S(=O)(=O)O)cc1-n1nc(-c2ccccc2)n[n+]1-c1cc(S(=O)(=O)[O-])c([N+](=O)[O-])cc1OC`, the TGI with UO-31 renal, in the experiment with OVCAR-4 ovarian, with SK-OV-3 ovarian, with IGROV1 ovarian, with T-47D breast and in the experiment on PC-3 prostate was > 100 µM in each case. Further, the TGI in the experiment on OVCAR-5 ovarian and in the experiment on SW-620 colon was > 100 µM throughout.

Take `CCCN(CCC)c1ccc(C=O)c(OC)c1`: the GI50 in the experiment on UO-31 renal was 16.5 µM; with OVCAR-4 ovarian, 19.4 µM; in the experiment with SK-OV-3 ovarian, 25.8 µM; in the experiment on IGROV1 ovarian, 32.8 µM; in the experiment on T-47D breast, 12.5 µM; in the experiment on PC-3 prostate it was 29.1 µM. For the same compound, the GI50 in the experiment on OVCAR-5 ovarian is 19.5 µM; with SW-620 colon, 22.9 µM. Moreover, the TGI in the experiment on UO-31 renal is > 100 µM; in the experiment with OVCAR-4 ovarian, 91.7 µM; with SK-OV-3 ovarian, > 100 µM; with IGROV1 ovarian, > 100 µM; with T-47D breast, 57.5 µM; with PC-3 prostate, > 100 µM. Besides, the TGI in the experiment with OVCAR-5 ovarian and with SW-620 colon was > 100 µM each time.

As to `CCOc1ccc2c(-c3ccnc(Nc4cccc(C(F)(F)F)c4)n3)cnn2n1`, the GI50 with UO-31 renal is > 25 µM; in the experiment with OVCAR-4 ovarian, 9.46 µM; with SK-OV-3 ovarian, 8.11 µM; in the experiment with IGROV1 ovarian, 10.9 µM; in the experiment on T-47D breast it was 1.4 µM; with PC-3 prostate, > 16.1 µM. Also, the GI50 in the experiment with OVCAR-5 ovarian is > 15.9 µM; in the experiment on SW-620 colon, > 25 µM. The TGI in the experiment with UO-31 renal was > 25 µM; with OVCAR-4 ovarian, > 25 µM; in the experiment on SK-OV-3 ovarian, 18.9 µM; with IGROV1 ovarian it was > 25 µM; in the experiment with T-47D breast, > 25 µM; in the experiment with PC-3 prostate, > 25 µM. For the same compound, the TGI in the experiment on OVCAR-5 ovarian and with SW-620 colon was > 25 µM in each case.

Regarding `CCN(CCc1ccc(F)cc1)c1ccc(CO)c(Cl)c1`, the GI50 is 11.1 µM in the experiment with UO-31 renal; 2.23 µM in the experiment with OVCAR-4 ovarian; 12.4 µM in the experiment on SK-OV-3 ovarian; 0.824 µM with IGROV1 ovarian; 1.39 µM in the experiment with T-47D breast; 10.9 µM in the experiment with PC-3 prostate. Besides, the figures for the GI50 in the experiment on OVCAR-5 ovarian and with SW-620 colon were 0.505 µM and 8.84 µM, respectively. The TGI in the experiment with UO-31 renal turned out to be 23.8 µM; with OVCAR-4 ovarian, 15.3 µM; in the experiment with SK-OV-3 ovarian, 27.8 µM; in the experiment with IGROV1 ovarian it was 7.11 µM; in the experiment with T-47D breast, 12.7 µM; in the experiment on PC-3 prostate, 24.8 µM. Also, the TGI with OVCAR-5 ovarian amounted to 2.28 µM; with SW-620 colon, 24.2 µM.

`CCc1nc2cc(/C=C/C(=O)NO)c(F)cc2c(=O)n1CCc1ccccc1`: the GI50 in the experiment with UO-31 renal was 0.735 µM; in the experiment on OVCAR-4 ovarian it was 0.689 µM; in the experiment on SK-OV-3 ovarian it was 1.68 µM; in the experiment on T-47D breast, 0.29 µM; in the experiment with PC-3 prostate, 3.96 µM; in the experiment on OVCAR-5 ovarian, 1.61 µM. Further, the GI50 in the experiment with SW-620 colon is 0.619 µM. For the same compound, the TGI in the experiment with UO-31 renal came to 2.73 µM; in the experiment with OVCAR-4 ovarian, 17.8 µM; with SK-OV-3 ovarian, 5.28 µM; with T-47D breast, 4.95 µM; in the experiment with PC-3 prostate it was 75.6 µM; in the experiment with OVCAR-5 ovarian it was 12.6 µM. The TGI in the experiment on SW-620 colon amounted to 13.9 µM.

Regarding `CC(=O)OC1C(O)COC(Oc2c(C)c3c4c(c2O)[C@@H](C)CC[C@@H]4[C@@H](C)C[C@H]3C=C(C)C)C1O` (some centres not stated), the GI50 in the experiment with UO-31 renal was 30 µM; with OVCAR-4 ovarian, 16.8 µM; with SK-OV-3 ovarian it was 19.6 µM; in the experiment on IGROV1 ovarian it was 28.9 µM; in the experiment with T-47D breast, 39.4 µM; in the experiment with PC-3 prostate it was 11.3 µM. Further, the GI50 with OVCAR-5 ovarian is 23.2 µM. The TGI was > 100 µM with UO-31 renal; 47.1 µM in the experiment on OVCAR-4 ovarian; 39.2 µM in the experiment with SK-OV-3 ovarian; > 100 µM with IGROV1 ovarian; > 100 µM in the experiment with T-47D breast; 26.3 µM in the experiment on PC-3 prostate. The compound also yielded a TGI with OVCAR-5 ovarian of 47.9 µM.

For `CCCCn1c(=O)c(/C=C/C(=O)/C=C/c2ccc(O)c(OC)c2)cc2ccc(Cl)cc21`, the GI50 is 1.59 µM in the experiment on UO-31 renal; 2.34 µM in the experiment with OVCAR-4 ovarian; 3.82 µM in the experiment on SK-OV-3 ovarian; 1.92 µM with IGROV1 ovarian; 1.85 µM in the experiment with T-47D breast; 1.89 µM in the experiment with PC-3 prostate. For the same compound, the GI50 in the experiment with OVCAR-5 ovarian was 2.57 µM; with SW-620 colon, 2.05 µM. Further, the TGI in the experiment on UO-31 renal worked out at 2.93 µM; in the experiment on OVCAR-4 ovarian, 9.81 µM; in the experiment on SK-OV-3 ovarian it was 14.2 µM; with IGROV1 ovarian it was 4.1 µM; in the experiment with T-47D breast it was 6.28 µM; in the experiment on PC-3 prostate, 4.71 µM. Moreover, the TGI turned out to be 4.89 µM with OVCAR-5 ovarian and 4.37 µM with SW-620 colon.

Take `COc1ccc(OC)c(-c2cn3nc(-c4c[nH]c5ccc(Br)cc45)sc3n2)c1`: the GI50 in the experiment on UO-31 renal was 1.67 µM; with OVCAR-4 ovarian, 1.8 µM; in the experiment with SK-OV-3 ovarian, 9.01 µM; in the experiment with IGROV1 ovarian, 2.27 µM; with PC-3 prostate it was 1.87 µM; in the experiment on OVCAR-5 ovarian, 3.52 µM. Further, the GI50 with SW-620 colon is 2.26 µM. The TGI amounted to 11.2 µM with UO-31 renal; 3.8 µM in the experiment with OVCAR-4 ovarian; 22.8 µM in the experiment with SK-OV-3 ovarian; 11.5 µM in the experiment with IGROV1 ovarian; 4.66 µM in the experiment with PC-3 prostate; 15.6 µM in the experiment with OVCAR-5 ovarian. The compound further returned a TGI in the experiment on SW-620 colon of 5.28 µM.

As to `O=C(/C=C/c1ccccc1)c1ccc(O)c(CN2CCN(c3cc4c(cc3F)c(=O)c(C(=O)O)cn4C3CC3)CC2)c1`, the GI50 was 16.7 µM in the experiment on OVCAR-4 ovarian; 2.77 µM in the experiment on SK-OV-3 ovarian; 1.36 µM in the experiment on IGROV1 ovarian; 1.77 µM in the experiment on T-47D breast; 0.897 µM in the experiment on PC-3 prostate; 3.91 µM in the experiment on OVCAR-5 ovarian. Also, the GI50 in the experiment on SW-620 colon is 2.28 µM. The TGI was > 100 µM in the experiment with OVCAR-4 ovarian; > 100 µM in the experiment on SK-OV-3 ovarian; 36.6 µM in the experiment with IGROV1 ovarian; > 100 µM in the experiment with T-47D breast; > 100 µM in the experiment on PC-3 prostate; > 100 µM with OVCAR-5 ovarian. The TGI in the experiment on SW-620 colon is > 100 µM.

As to `COc1cc(/C=C\c2cc(/C=C\c3ccc(O)c(OC)c3)n(C(=O)Nc3ccc(C(F)(F)F)cc3)n2)ccc1O`, the GI50 in the experiment with OVCAR-4 ovarian is 3.51 µM; in the experiment with SK-OV-3 ovarian, 4.02 µM; in the experiment with IGROV1 ovarian, 2.77 µM; with T-47D breast, 2.81 µM; in the experiment with PC-3 prostate, 3.21 µM; in the experiment on OVCAR-5 ovarian, 2.16 µM. Besides, the GI50 in the experiment on SW-620 colon was 2.56 µM. Also, the TGI in the experiment with OVCAR-4 ovarian came to 52.7 µM; with SK-OV-3 ovarian, 66.7 µM; in the experiment with IGROV1 ovarian, 11.6 µM; in the experiment with T-47D breast it was 39 µM; in the experiment with PC-3 prostate, 13.5 µM; in the experiment on OVCAR-5 ovarian, 4.97 µM. In the experiment on SW-620 colon, this compound gave a TGI of 5.9 µM.
